Drawing on ChEMBL document CHEMBL1142389, “New insights into the first oxidative phenol coupling reaction during vancomycin biosynthesis” (Bioorg Med Chem Lett, 2008), this text covers Kd for 2 molecules.

Broadly, the Kd is the equilibrium constant for the complex coming apart.

Structures are written as SMILES.

The assay has as its target T1, Cytochrome P450 165B3 (Amycolatopsis orientalis, UniProt Q8RN04).
T1 sequence (Q8RN04 whole entry): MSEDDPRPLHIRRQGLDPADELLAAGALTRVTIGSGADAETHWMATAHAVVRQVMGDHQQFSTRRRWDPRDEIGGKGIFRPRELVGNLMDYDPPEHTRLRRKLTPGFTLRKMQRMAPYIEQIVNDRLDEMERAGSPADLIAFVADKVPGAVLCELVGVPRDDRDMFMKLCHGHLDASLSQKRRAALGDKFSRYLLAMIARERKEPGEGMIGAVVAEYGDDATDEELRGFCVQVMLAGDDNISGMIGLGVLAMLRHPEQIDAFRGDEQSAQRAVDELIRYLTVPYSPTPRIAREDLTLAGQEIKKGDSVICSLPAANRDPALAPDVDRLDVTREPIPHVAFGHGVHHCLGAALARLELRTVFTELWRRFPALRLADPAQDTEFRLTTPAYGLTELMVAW
Briefly: Binding affinity to Amycolatopsis orientalis OxyB.

With `CN[C@H](CC(C)C)C(=O)N[C@H](Cc1ccc(O)cc1)C(=O)N[C@@H](CC(N)=O)C(=O)N[C@@H](C(=O)N[C@@H](C(=O)N[C@H](Cc1ccc(O)cc1)C(=O)O)c1ccc(O)cc1)c1ccc(O)cc1`, binding was characterised by a dissociation constant (Kd) of 35 µM.
`CN[C@H](CC(C)C)C(=O)N[C@H](Cc1ccc(O)cc1)C(=O)N[C@@H](CC(N)=O)C(=O)N[C@@H](C(=O)N[C@@H](C(=O)N[C@@H](Cc1ccc(O)cc1)C(=O)O)c1ccc(O)cc1)c1ccc(O)cc1`: the Kd was found to be 17 µM.
